Test results taken from patent publication US12594276B2, “Inhibitors of human immunodeficiency virus replication” (ViiV Healthcare UK (No.5) Limited, priority 2024, dated 2026).

Tests used:
[1] = system: recombinant NL4-3 virus (nef section replaced with Renilla luciferase gene) in MT-2 cells; experiment: HIV cell culture assay (antiviral activity, luciferase readout); assay type: cell-based; conditions: Renilla, NL43, MT-2 cells infected for 4-5 days with recombinant NL4-3 Renilla luciferase virus
Outline: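 MT-2 cells were infected for 4-5 days with reporter virus made by transfecting the recombinant NL4-3 proviral clone into 293T cells, in the presence of serial compound dilutions. Luciferase activity was read with a live-cell substrate. EC50 came from the exponential median effect equation, (Fa)=1/[1+(ED50/drug conc.)m].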

[2] = Compound cytotoxicity, XTT-based colorimetric assay; assay type: cell-based; conditions: human; uninfected MT2 cells, day 4, XTT; read-out: CC50
Outline: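 Uninfected MT2 cells, antiviral-assay protocol without virus; XTT colorimetric readout day 4; CC50 reported.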

Row | Structure (SMILES) | EC50 [1] [nM] | CC50 at 4 days [2] [nM]
1 | CS(=O)(=O)Nc1nn(CCN2CCCC(F)(F)C2)c2c(-n3c([C@H](Cc4cc(F)cc(F)c4)NC(=O)Cn4nc(C(F)F)c5c4C(F)(F)[C@@H]4C[C@H]54)nc4nc(C5CCC(F)(F)CC5)cc(C(F)F)c4c3=O)ccc(Cl)c12 (atropisomer, axis not shown; (P)) [Example 292, N-[(1S)-1-[(3P)-3-{4-chloro-1-[2-(3,3-difluoropiperidin-1-yl)ethyl]-3-methanesulfonamido-1H-indazol-7-yl}-7-(4,4-difluorocyclohexyl)-5-(difluoromethyl)-4-oxo-3H,4H-pyrido[2,3-d]pyrimidin-2-yl]-2-(3,5-difluorophenyl)ethyl]-2-[(2S,4R)-9-(difluoromethyl)-5,5-difluoro-7,8-diazatricyclo[4.3.0.0^2,^4]nona-1(6),8-dien-7-yl]acetamide] | 0.016 | > 50
2 | CS(=O)(=O)Nc1nn(CCN2C[C@H]3C[C@@H]2CO3)c2c(-n3c([C@H](Cc4cc(F)cc(F)c4)NC(=O)Cn4nc(C5CC5)c5c4C[C@@H]4C[C@H]54)nc4nc(C5CCC(F)(F)CC5)cc(C(F)F)c4c3=O)ccc(Cl)c12 (atropisomer, axis not shown; (P)) [Example 298, N-[(1S)-1-[(3P)-3-(4-chloro-3-methanesulfonamido-1-{2-[(1R,4R)-2-oxa-5-azabicyclo[2.2.1]heptan-5-yl]ethyl}-1H-indazol-7-yl)-7-(4,4-difluorocyclohexyl)-5-(difluoromethyl)-4-oxo-3H,4H-pyrido[2,3-d]pyrimidin-2-yl]-2-(3,5-difluorophenyl)ethyl]-2-[(2S,4S)-9-cyclopropyl-7,8-diazatricyclo[4.3.0.0^2,^4]nona-1(6),8-dien-7-yl]acetamide] | 0.016 | > 50
3 | CS(=O)(=O)Nc1nn(CCN2CC(F)(F)C2)c2c(-n3c([C@H](Cc4cc(F)cc(F)c4)NC(=O)Cn4nc(C(F)F)c5c4C(F)(F)[C@@H]4C[C@H]54)nc4nc(C5CCC(F)(F)CC5)cc(C(F)F)c4c3=O)ccc(Cl)c12 (atropisomer, axis not shown; (P)) [Example 307, N-[(1S)-1-[(3P)-3-{4-chloro-1-[2-(3,3-difluoroazetidin-1-yl)ethyl]-3-methanesulfonamido-1H-indazol-7-yl}-7-(4,4-difluorocyclohexyl)-5-(difluoromethyl)-4-oxo-3H,4H-pyrido[2,3-d]pyrimidin-2-yl]-2-(3,5-difluorophenyl)ethyl]-2-[(2S,4R)-9-(difluoromethyl)-5,5-difluoro-7,8-diazatricyclo[4.3.0.0^2,^4]nona-1(6),8-dien-7-yl]acetamide] | 0.023 | > 50
4 | Cc1cc(C2CCC(F)(F)CC2)nc2nc([C@H](Cc3cc(F)cc(F)c3)NC(=O)Cn3nc(C(F)F)c4c3C(F)(F)[C@@H]3C[C@H]43)n(-c3ccc(Cl)c4c(NS(C)(=O)=O)nn(CCN5C[C@@H]6C[C@H]5CC6(F)F)c34)c(=O)c12 (atropisomer, axis not shown; (P)) [Example 310, N-[(1S)-1-[(3P)-3-(4-chloro-1-{2-[(1S,4S)-5,5-difluoro-2-azabicyclo[2.2.1]heptan-2-yl]ethyl}-3-methanesulfonamido-1H-indazol-7-yl)-7-(4,4-difluorocyclohexyl)-5-methyl-4-oxo-3H,4H-pyrido[2,3-d]pyrimidin-2-yl]-2-(3,5-difluorophenyl)ethyl]-2-[(2S,4R)-9-(difluoromethyl)-5,5-difluoro-7,8-diazatricyclo[4.3.0.0^2,^4]nona-1(6),8-dien-7-yl]acetamide] | 0.019 | > 50
5 | Cc1cc(C2CCC(F)(F)CC2)nc2nc([C@H](Cc3cc(F)cc(F)c3)NC(=O)Cn3nc(C4CC4)c4c3C[C@@H]3C[C@H]43)n(-c3ccc(Cl)c4c(NS(C)(=O)=O)nn(CCN5C[C@@H]6C[C@H]5CC6(F)F)c34)c(=O)c12 (atropisomer, axis not shown; (P)) [Example 311, N-[(1S)-1-[(3P)-3-(4-chloro-1-{2-[(1S,4S)-5,5-difluoro-2-azabicyclo[2.2.1]heptan-2-yl]ethyl}-3-methanesulfonamido-1H-indazol-7-yl)-7-(4,4-difluorocyclohexyl)-5-methyl-4-oxo-3H,4H-pyrido[2,3-d]pyrimidin-2-yl]-2-(3,5-difluorophenyl)ethyl]-2-[(2S,4S)-9-cyclopropyl-7,8-diazatricyclo[4.3.0.0^2,^4]nona-1(6),8-dien-7-yl]acetamide] | 0.013 | > 50
6 | CS(=O)(=O)Nc1nn(CCN2CC(C(F)F)C2)c2c(-n3c([C@H](Cc4cc(F)cc(F)c4)NC(=O)Cn4nc(C(F)F)c5c4C(F)(F)[C@@H]4C[C@H]54)nc4nc(C5CCC(F)(F)CC5)cc(C(F)F)c4c3=O)ccc(Cl)c12 (atropisomer, axis not shown; (P)) [Example 315, N-[(1S)-1-[(3P)-3-(4-chloro-1-{2-[3-(difluoromethyl)azetidin-1-yl]ethyl}-3-methanesulfonamido-1H-indazol-7-yl)-7-(4,4-difluorocyclohexyl)-5-(difluoromethyl)-4-oxo-3H,4H-pyrido[2,3-d]pyrimidin-2-yl]-2-(3,5-difluorophenyl)ethyl]-2-[(2S,4R)-9-(difluoromethyl)-5,5-difluoro-7,8-diazatricyclo[4.3.0.0^2,^4]nona-1(6),8-dien-7-yl]acetamide] | 0.025 | > 50
7 | CS(=O)(=O)Nc1nn(CCN2CCC(F)(F)CC2)c2c(-n3c([C@H](Cc4cc(F)cc(F)c4)NC(=O)Cn4nc(C(F)F)c5c4C(F)(F)[C@@H]4C[C@H]54)nc4nc(C5CCC(F)(F)CC5)cc(C5CC5)c4c3=O)ccc(Cl)c12 (atropisomer, axis not shown; (P)) [Example 321, N-[(1S)-1-[(3P)-3-{4-chloro-1-[2-(4,4-difluoropiperidin-1-yl)ethyl]-3-methanesulfonamido-1H-indazol-7-yl}-5-cyclopropyl-7-(4,4-difluorocyclohexyl)-4-oxo-3H,4H-pyrido[2,3-d]pyrimidin-2-yl]-2-(3,5-difluorophenyl)ethyl]-2-[(2S,4R)-9-(difluoromethyl)-5,5-difluoro-7,8-diazatricyclo[4.3.0.0^2,^4]nona-1(6),8-dien-7-yl]acetamide] | 0.02 | > 50
8 | CS(=O)(=O)Nc1nn(CCN2C[C@H](F)C[C@H](F)C2)c2c(-n3c([C@H](Cc4cc(F)cc(F)c4)NC(=O)Cn4nc(C(F)F)c5c4C(F)(F)[C@@H]4C[C@H]54)nc4nc(C5CCC(F)(F)CC5)cc(C5CC5)c4c3=O)ccc(Cl)c12 (atropisomer, axis not shown; (P)) [Example 322, N-[(1S)-1-[(3P)-3-(4-chloro-1-{2-[(3R,5S)-3,5-difluoropiperidin-1-yl]ethyl}-3-methanesulfonamido-1H-indazol-7-yl)-5-cyclopropyl-7-(4,4-difluorocyclohexyl)-4-oxo-3H,4H-pyrido[2,3-d]pyrimidin-2-yl]-2-(3,5-difluorophenyl)ethyl]-2-[(2S,4R)-9-(difluoromethyl)-5,5-difluoro-7,8-diazatricyclo[4.3.0.0^2,^4]nona-1(6),8-dien-7-yl]acetamide] | 0.009 | > 50
9 | C[C@@H]1CN(CCn2nc(NS(C)(=O)=O)c3c(Cl)ccc(-n4c([C@H](Cc5cc(F)cc(F)c5)NC(=O)Cn5nc(C6CC6)c6c5C[C@@H]5C[C@H]65)nc5nc(C6CCC(F)(F)CC6)cc(C6CC6)c5c4=O)c32)C[C@H](C)O1 (atropisomer, axis not shown; (P)) [Example 324, N-[(1S)-1-[(3P)-3-(4-chloro-1-{2-[(2R,6S)-2,6-dimethylmorpholin-4-yl]ethyl}-3-methanesulfonamido-1H-indazol-7-yl)-5-cyclopropyl-7-(4,4-difluorocyclohexyl)-4-oxo-3H,4H-pyrido[2,3-d]pyrimidin-2-yl]-2-(3,5-difluorophenyl)ethyl]-2-[(2S,4S)-9-cyclopropyl-7,8-diazatricyclo[4.3.0.0^2,^4]nona-1(6),8-dien-7-yl]acetamide] | 0.014 | > 50
10 | CS(=O)(=O)Nc1nn(CCN2C[C@H]3CC[C@@H](C2)O3)c2c(-n3c([C@H](Cc4cc(F)cc(F)c4)NC(=O)Cn4nc(C5CC5)c5c4C[C@@H]4C[C@H]54)nc4nc(C5CCC(F)(F)CC5)cc(C5CC5)c4c3=O)ccc(Cl)c12 (atropisomer, axis not shown; (P)) [Example 325, N-[(1S)-1-[(3P)-3-(4-chloro-3-methanesulfonamido-1-{2-[(1R,5S)-8-oxa-3-azabicyclo[3.2.1]octan-3-yl]ethyl}-1H-indazol-7-yl)-5-cyclopropyl-7-(4,4-difluorocyclohexyl)-4-oxo-3H,4H-pyrido[2,3-d]pyrimidin-2-yl]-2-(3,5-difluorophenyl)ethyl]-2-[(2S,4S)-9-cyclopropyl-7,8-diazatricyclo[4.3.0.0^2,^4]nona-1(6),8-dien-7-yl]acetamide] | 0.009 | > 50
11 | CS(=O)(=O)Nc1nn(CCN2C[C@H](F)C[C@H](F)C2)c2c(-n3c([C@H](Cc4cc(F)cc(F)c4)NC(=O)Cn4nc(C5CC5)c5c4C[C@@H]4C[C@H]54)nc4nc(C5CCC(F)(F)CC5)cc(C5CC5)c4c3=O)ccc(Cl)c12 (atropisomer, axis not shown; (P)) [Example 327, N-[(1S)-1-[(3P)-3-(4-chloro-1-{2-[(3R,5S)-3,5-difluoropiperidin-1-yl]ethyl}-3-methanesulfonamido-1H-indazol-7-yl)-5-cyclopropyl-7-(4,4-difluorocyclohexyl)-4-oxo-3H,4H-pyrido[2,3-d]pyrimidin-2-yl]-2-(3,5-difluorophenyl)ethyl]-2-[(2S,4S)-9-cyclopropyl-7,8-diazatricyclo[4.3.0.0^2,^4]nona-1(6),8-dien-7-yl]acetamide] | 0.008 | > 50
